≈ marks a conversion by molar mass, not a printed value.
Legend:
[1] = molecular target: T1, chitin synthase 1 of Candida albicans chs2 Δ chs 3 Δ (Candida albicans, UniProt P23316); assay: In vitro enzyme assay for chitin synthase 1 of Candida albicans (enzyme 1); assay type: biochemical; settings: relative to polyoxin D (50% inhibitory activity = value 5)
T1 construct: Crude enzyme was prepared using the Candida albicans chs2 Δ chs 3 Δ mutant; endogenous in cells; host or cells: Candida albicans chs2Δ/chs2Δ chs3Δ/chs3Δ mutant; 130,000 x g membrane pellet
T1 sequence (P23316 whole entry, stated change not applied): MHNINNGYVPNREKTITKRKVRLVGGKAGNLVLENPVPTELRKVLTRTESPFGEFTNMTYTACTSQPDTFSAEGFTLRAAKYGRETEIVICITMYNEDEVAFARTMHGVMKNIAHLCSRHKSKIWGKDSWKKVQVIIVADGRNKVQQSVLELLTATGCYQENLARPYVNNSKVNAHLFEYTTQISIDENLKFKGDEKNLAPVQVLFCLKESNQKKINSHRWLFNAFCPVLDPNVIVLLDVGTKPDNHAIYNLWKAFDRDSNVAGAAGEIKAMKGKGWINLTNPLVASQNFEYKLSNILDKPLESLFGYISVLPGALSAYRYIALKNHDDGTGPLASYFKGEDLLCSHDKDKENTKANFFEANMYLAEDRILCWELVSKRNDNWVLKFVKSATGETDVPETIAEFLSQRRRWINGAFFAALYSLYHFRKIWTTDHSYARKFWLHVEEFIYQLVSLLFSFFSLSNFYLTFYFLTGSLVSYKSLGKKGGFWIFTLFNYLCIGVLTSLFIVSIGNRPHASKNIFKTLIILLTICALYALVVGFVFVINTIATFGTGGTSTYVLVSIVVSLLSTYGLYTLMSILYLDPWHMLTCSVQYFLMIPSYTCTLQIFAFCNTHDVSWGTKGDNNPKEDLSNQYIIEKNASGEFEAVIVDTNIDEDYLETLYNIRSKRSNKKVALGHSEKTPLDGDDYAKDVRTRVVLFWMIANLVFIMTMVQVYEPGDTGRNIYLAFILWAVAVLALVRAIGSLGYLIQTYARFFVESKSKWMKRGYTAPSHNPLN
In short: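 Trypsin-activated crude membrane chitin synthase 1 from C. albicans chs2Δ chs3Δ was incubated 90 min at 30 °C with 1.1 mM UDP-[14C]GlcNAc and 2 mM cobalt acetate in Tris-HCl pH 7.5. Filtered TCA precipitate was counted by scintillation; values are scores 1–8 against polyoxin D (5 = same concentration).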

[2] = molecular target: T2, chitin synthase 2 of Saccharomyces cerevisiae ECY38-38A(pAS6) (Saccharomyces cerevisiae, UniProt P14180); assay: In vitro enzyme assay for chitin synthase 2 of Saccharomyces cerevisiae (enzyme 2); assay type: biochemical; settings: relative to polyoxin D (50% inhibitory activity = value 5)
T2 construct: made in house; host or cells: Saccharomyces cerevisiae ECY38-38A (chs1-23 chs2::LEU2 cal1/csd2) carrying plasmid pAS6, grown in galactose medium; 130,000 x g membrane pellet
T2 sequence (P14180 whole entry): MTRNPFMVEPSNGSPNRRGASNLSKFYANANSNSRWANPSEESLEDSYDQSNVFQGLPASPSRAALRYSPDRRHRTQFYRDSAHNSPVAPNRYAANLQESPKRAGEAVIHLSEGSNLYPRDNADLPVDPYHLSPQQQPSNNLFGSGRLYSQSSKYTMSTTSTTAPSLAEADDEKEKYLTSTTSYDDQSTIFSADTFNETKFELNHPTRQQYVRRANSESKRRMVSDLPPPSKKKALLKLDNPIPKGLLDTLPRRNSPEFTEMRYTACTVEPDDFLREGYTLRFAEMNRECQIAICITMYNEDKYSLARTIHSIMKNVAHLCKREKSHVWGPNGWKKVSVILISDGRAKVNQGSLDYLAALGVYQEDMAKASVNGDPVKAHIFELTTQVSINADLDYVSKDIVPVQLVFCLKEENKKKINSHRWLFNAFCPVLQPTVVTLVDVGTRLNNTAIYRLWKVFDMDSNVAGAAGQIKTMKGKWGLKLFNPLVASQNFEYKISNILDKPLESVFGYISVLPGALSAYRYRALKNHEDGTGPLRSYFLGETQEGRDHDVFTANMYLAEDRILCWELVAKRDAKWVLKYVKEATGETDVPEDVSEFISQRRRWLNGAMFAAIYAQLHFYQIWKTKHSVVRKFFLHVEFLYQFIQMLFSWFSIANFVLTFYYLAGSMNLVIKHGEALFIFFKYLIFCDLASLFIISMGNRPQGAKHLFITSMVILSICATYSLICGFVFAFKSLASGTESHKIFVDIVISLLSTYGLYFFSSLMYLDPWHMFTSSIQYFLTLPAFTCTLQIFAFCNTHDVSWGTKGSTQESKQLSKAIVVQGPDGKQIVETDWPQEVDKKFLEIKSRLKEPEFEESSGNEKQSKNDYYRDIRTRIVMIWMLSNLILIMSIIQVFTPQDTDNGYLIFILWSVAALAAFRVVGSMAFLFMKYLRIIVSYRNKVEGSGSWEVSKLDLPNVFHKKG
In short: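 Values are scores: 5 means 50% inhibition at the same concentration as polyoxin D, lower scores 2- to 16-fold higher concentration, higher scores ½ to ⅛. Radiolabel from 1.1 mM UDP-[14C]-GlcNAc was incorporated into TCA-insoluble chitin over 90 min at 30 °C (pH 7.5 Tris, 2 mM Co2+). The enzyme was a trypsin-activated membrane fraction from CHS2-only S. cerevisiae ECY38-38A(pAS6).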

[3] = test system: Aspergillus terreus ATCC 46941; assay: In vitro antifungal activity (MIC), NCCLS method; assay type: cell-based; settings: 48 hours
Excerpt: (§1) Candida albicans ATCC 10231, Candida lusitaniae ATCC 42720, Candida krusei ATCC 6258, Candida tropicalis ATCC 13803, Candida glabrata ATCC 48435, Candida parapsilosis ATCC 34136, Cryptococcus neoformans ATCC 36556, Aspergillus fumigatus ATCC 16424, Aspergillus flavus ATCC 64025, Aspergillus terreus ATCC 46941 and Mucor ramosissimus ATCC 90286 strains for the MIC (minimum inhibitory concentration) measurement were obtained from ATCC (American Type Culture Collection) in the U.S. The Candida albicans A207(clinical isolate) strain was used by isolating it from the patients.
(§2) The determination of MIC was performed according to the NCCLS (National Committee for Clinical Laboratory Standard) method. Each test sample solution was diluted two-fold and inoculated with a fungal suspension to reach a final inoculum size of 5×10^2 to 2.5×10^3 cell/mL. The Cryptococcus neoformans strain was cultured in the RPMI 1640 medium for 72 hours. Other strains were cultured for 48 hours.

[4] = test system: Mucor ramosissimus ATCC 90286; assay: In vitro antifungal activity (MIC), NCCLS method; assay type: cell-based; settings: 48 hours
Excerpt: as §1, §2

[5] = test system: Candida parapsilosis ATCC 34136; assay: In vitro antifungal activity (MIC), NCCLS method; assay type: cell-based; settings: Candida parapsilosis ATCC 34136; 48 hours
Excerpt: as §1, §2

[6] = test system: Aspergillus fumigatus ATCC 16424; assay: In vitro antifungal activity (MIC), NCCLS method; assay type: cell-based; settings: 48 hours
Excerpt: as §1, §2

[7] = test system: Cryptococcus neoformans ATCC 36556; assay: In vitro antifungal activity (MIC), NCCLS method; assay type: cell-based; settings: RPMI 1640 medium, 72 hours
Excerpt: as §1, §2

[8] = test system: Candida krusei ATCC 6258; assay: In vitro antifungal activity (MIC), NCCLS method; assay type: cell-based; settings: 48 hours
Excerpt: as §1, §2

[9] = test system: Candida glabrata ATCC 48435; assay: In vitro antifungal activity (MIC), NCCLS method; assay type: cell-based; settings: Candida glabrata ATCC 48435; 48 hours
Excerpt: as §1, §2

[10] = test system: Candida tropicalis ATCC 13803; assay: In vitro antifungal activity (MIC), NCCLS method; assay type: cell-based; settings: 48 hours
Excerpt: as §1, §2

[11] = test system: Aspergillus flavus ATCC 64025; assay: In vitro antifungal activity (MIC), NCCLS method; assay type: cell-based; settings: 48 hours
Excerpt: as §1, §2

[12] = test system: Candida albicans ATCC 10231; assay: In vitro antifungal activity (MIC), NCCLS method; assay type: cell-based; settings: 48 hours
Excerpt: as §1, §2

[13] = test system: Candida lusitaniae ATCC 42720; assay: In vitro antifungal activity (MIC), NCCLS method; assay type: cell-based; settings: 48 hours
Excerpt: as §1, §2

[14] = test system: Candida albicans A207 (clinical isolate); assay: In vitro antifungal activity (MIC), NCCLS method; assay type: cell-based; settings: 48 hours
Excerpt: as §1, §2

Compound | Relative activity Enzyme 1 [1] | Relative activity Enzyme 2 [2] | MIC (minimum inhibitory concentration) [3] | MIC (minimum inhibitory concentration) [4] | MIC (minimum inhibitory concentration) [5] | MIC (minimum inhibitory concentration) [6] | MIC (minimum inhibitory concentration) [7] | MIC (minimum inhibitory concentration) [8] | MIC (minimum inhibitory concentration) [9] | MIC (minimum inhibitory concentration) [10] | MIC (minimum inhibitory concentration) [11] | MIC (minimum inhibitory concentration) [12] | MIC (minimum inhibitory concentration) [13] | MIC (minimum inhibitory concentration) [14]
13-(4-Isopropylbenzyl)-9-O-(3-hydroxypropyl)berberrubine iodide [Compound No. 21] | 3 (Compounds having the inhibitory activity at 2-fold, 4-fold, 8-fold and 16-fold higher concentrations than that of polyoxin D were given the values of 4, 3, 2 and 1, respectively) | 6 (compounds having the inhibitory activity at ½, ¼ and ⅛ lower concentrations than that of polyoxin D were given the values of 6, 7 and 8, respectively) | 8 µg/mL | 4 µg/mL | 2 µg/mL | 2 µg/mL | 1 µg/mL | 1 µg/mL | 2 µg/mL | 0.5 µg/mL | 8 µg/mL | 0.5 µg/mL | 2 µg/mL | 0.5 µg/mL
13-(4-Isopropylbenzyl)-9-O-allylberberrubine chloride [Compound No. 55] | 3 (Compounds having the inhibitory activity at 2-fold, 4-fold, 8-fold and 16-fold higher concentrations than that of polyoxin D were given the values of 4, 3, 2 and 1, respectively) | 6 (compounds having the inhibitory activity at ½, ¼ and ⅛ lower concentrations than that of polyoxin D were given the values of 6, 7 and 8, respectively) | 8 µg/mL | 4 µg/mL | 4 µg/mL | 8 µg/mL | 2 µg/mL | 2 µg/mL | 8 µg/mL | 1 µg/mL | 8 µg/mL | 1 µg/mL | 2 µg/mL | 1 µg/mL
13-(4-Isopropylbenzyl)-9-O-hexylberberrubine chloride [Compound No. 51] | 3 (Compounds having the inhibitory activity at 2-fold, 4-fold, 8-fold and 16-fold higher concentrations than that of polyoxin D were given the values of 4, 3, 2 and 1, respectively) | 6 (compounds having the inhibitory activity at ½, ¼ and ⅛ lower concentrations than that of polyoxin D were given the values of 6, 7 and 8, respectively) | 8 µg/mL | 4 µg/mL | 2 µg/mL | 2 µg/mL | 0.5 µg/mL | 1 µg/mL | 2 µg/mL | 0.125 µg/mL | 8 µg/mL | 0.25 µg/mL | 0.5 µg/mL | 0.25 µg/mL
C[C@@H]1[C@H](O)[C@@H](C)/C=C/C=C/C=C/C=C/C=C/C=C/C=C/[C@H](O[C@@H]2O[C@H](C)[C@@H](O)[C@H](N)[C@@H]2O)C[C@@H]2O[C@](O)(C[C@@H](O)C[C@@H](O)[C@H](O)CC[C@@H](O)C[C@@H](O)CC(=O)O[C@H]1C)C[C@H](O)[C@H]2C(=O)O [amphotericin B, reference compound] | – | – | 16 µg/mL (≈ 17.3 µM) | 0.5 µg/mL (≈ 0.541 µM) | 0.5 µg/mL (≈ 0.541 µM) | 1 µg/mL (≈ 1.08 µM) | 0.125 µg/mL (≈ 0.135 µM) | 0.5 µg/mL (≈ 0.541 µM) | 1 µg/mL (≈ 1.08 µM) | 0.5 µg/mL (≈ 0.541 µM) | 4 µg/mL (≈ 4.33 µM) | 0.5 µg/mL (≈ 0.541 µM) | 1 µg/mL (≈ 1.08 µM) | 0.5 µg/mL (≈ 0.541 µM)
13-(4-tert-Butylbenzyl)-9-O-hexylberberrubine chloride [Compound No. 41] | 4 (Compounds having the inhibitory activity at 2-fold, 4-fold, 8-fold and 16-fold higher concentrations than that of polyoxin D were given the values of 4, 3, 2 and 1, respectively) | 6 (compounds having the inhibitory activity at ½, ¼ and ⅛ lower concentrations than that of polyoxin D were given the values of 6, 7 and 8, respectively) | 8 µg/mL | 4 µg/mL | 2 µg/mL | 2 µg/mL | 0.5 µg/mL | 1 µg/mL | 2 µg/mL | 0.125 µg/mL | 8 µg/mL | 0.25 µg/mL | 0.5 µg/mL | 0.25 µg/mL
13-(4-tert-Butylbenzyl)-9-O-allylberberrubine chloride [Compound No. 45] | 2 (Compounds having the inhibitory activity at 2-fold, 4-fold, 8-fold and 16-fold higher concentrations than that of polyoxin D were given the values of 4, 3, 2 and 1, respectively) | 6 (compounds having the inhibitory activity at ½, ¼ and ⅛ lower concentrations than that of polyoxin D were given the values of 6, 7 and 8, respectively) | 8 µg/mL | 4 µg/mL | 4 µg/mL | 8 µg/mL | 2 µg/mL | 2 µg/mL | 8 µg/mL | 1 µg/mL | 8 µg/mL | 1 µg/mL | 2 µg/mL | 1 µg/mL
13-(4-Isopropylbenzyl)-9-O-(4-isopropylbenzyl)berberrubine chloride [Compound No. 58] | 2 (Compounds having the inhibitory activity at 2-fold, 4-fold, 8-fold and 16-fold higher concentrations than that of polyoxin D were given the values of 4, 3, 2 and 1, respectively) | 5 (A compound having the same inhibitory activity as that of polyoxin D at the same concentration was given the value 5) | 8 µg/mL | 8 µg/mL | 8 µg/mL | 4 µg/mL | 2 µg/mL | 2 µg/mL | 2 µg/mL | 1 µg/mL | 8 µg/mL | 1 µg/mL | 4 µg/mL | 1 µg/mL
